# Tests used:
# Conditions in all cases: substance 10^−9M
# primary human T-cells = assay: Cytokine secretion on protein level in activated primary human T-cells (13-plex FACS / Luminex, supernatant); type: cell-based
# Outline: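 Cytokine protein in supernatant is read by multiplex FACS or Luminex. Tripeptide-treated HaCaT cells or blood-derived human T-cells are stimulated beforehand with PMA/Ionomycin or IFN-γ. The most relevant analytes are IL-1, IL-2, IL-6, IL-12p70, IL-17, IFN-γ and TNF-α, sampled 48 h and 72 h after stimulation.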
# [1] = system: human keratinocyte cell line (HaCaT); assay: Cytokine secretion on protein level in activated human keratinocyte cell line HaCaT (13-plex FACS / Luminex, supernatant); type: cell-based
# Outline: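 First, T-cells are isolated from healthy donors' blood. Next, they and HaCaT keratinocytes are activated for 48 h with PMA/Ionomycin or IFN-γ in the presence of tripeptides. Finally, secreted cytokines are quantified in supernatants by 13-plex FACS at 48 and 72 h.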
# primary murine T-cells = assay: Cytokine secretion on protein level in activated primary murine T-cells (13-plex FACS / Luminex, supernatant); type: cell-based, C57BL/6 mice
# Outline: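 T-cells from secondary lymphatic organs of naïve C57BL/6 mice, stimulated with PMA/Ionomycin or IFN-γ; supernatant cytokines measured by 13-plex FACS 48 h and 72 h after stimulation. In another run, PMA/Ionomycin-stimulated cells received compounds at 10^−7, 10^−9 and 10^−11 M, with IFN-γ, IL-17 and IL-10 measured by Luminex.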
# [2] = primary human T-cells stimulated with IFN-γ
# [3] = primary human T-cells stimulated with PBS
# [4] = primary human T-cells stimulated with PMA/Ionomycin
# [5] = HaCaT stimulated with PMA/Ionomycin
# [6] = primary murine T-cells stimulated with IFN-γ
# [7] = primary murine T-cells stimulated with PBS
# [8] = primary murine T-cells stimulated with PMA/Ionomycin
substance,measurement,setting,value
H-(L)-Lys-(L)-Pro-Alb-NH2 [Example 10],IL-1 cytokine concentration,primary human T-cells; [2],139.49 pg/mL
same,IL-2 cytokine concentration,primary human T-cells; [2],231.83 pg/mL
same,IL-4 cytokine concentration,primary human T-cells; [2],160.97 pg/mL
same,IL-5 cytokine concentration,primary human T-cells; [2],0 pg/mL
same,IL-6 cytokine concentration,primary human T-cells; [2],105.21 pg/mL
same,IL-9 cytokine concentration,primary human T-cells; [2],0 pg/mL
same,IL-10 cytokine concentration,primary human T-cells; [2],0 pg/mL
same,IL-12p70 cytokine concentration,primary human T-cells; [2],0 pg/mL
same,IL-13 cytokine concentration,primary human T-cells; [2],162.81 pg/mL
same,IL-17 cytokine concentration,primary human T-cells; [2],250.1 pg/mL
same,IL-22 cytokine concentration,primary human T-cells; [2],0 pg/mL
same,TNF-α cytokine concentration,primary human T-cells; [2],0 pg/mL
same,IL-1 cytokine concentration,primary human T-cells; [3],0 pg/mL
same,IL-2 cytokine concentration,primary human T-cells; [3],0 pg/mL
same,IL-4 cytokine concentration,primary human T-cells; [3],0 pg/mL
same,IL-5 cytokine concentration,primary human T-cells; [3],0 pg/mL
same,IL-6 cytokine concentration,primary human T-cells; [3],216.7 pg/mL
same,IL-9 cytokine concentration,primary human T-cells; [3],23.18 pg/mL
same,IL-10 cytokine concentration,primary human T-cells; [3],48.86 pg/mL
same,IL-12p70 cytokine concentration,primary human T-cells; [3],0 pg/mL
same,IL-13 cytokine concentration,primary human T-cells; [3],0 pg/mL
same,IL-17 cytokine concentration,primary human T-cells; [3],0 pg/mL
same,IL-22 cytokine concentration,primary human T-cells; [3],0 pg/mL
same,INF-α cytokine concentration,primary human T-cells; [3],0 pg/mL
same,TNF-α cytokine concentration,primary human T-cells; [3],21.65 pg/mL
same,IL-1 cytokine concentration,primary human T-cells; [4],878.53 pg/mL
same,IL-2 cytokine concentration,primary human T-cells; [4],5107.74 pg/mL
same,IL-4 cytokine concentration,primary human T-cells; [4],179.62 pg/mL
same,IL-5 cytokine concentration,primary human T-cells; [4],416.25 pg/mL
same,IL-6 cytokine concentration,primary human T-cells; [4],1255.58 pg/mL
same,IL-9 cytokine concentration,primary human T-cells; [4],461.98 pg/mL
same,IL-10 cytokine concentration,primary human T-cells; [4],729.43 pg/mL
same,IL-12p70 cytokine concentration,primary human T-cells; [4],0 pg/mL
same,IL-13 cytokine concentration,primary human T-cells; [4],1183.46 pg/mL
same,IL-17 cytokine concentration,primary human T-cells; [4],2234.39 pg/mL
same,IL-22 cytokine concentration,primary human T-cells; [4],0 pg/mL
same,INF-α cytokine concentration,primary human T-cells; [4],11538.53 pg/mL
same,TNF-α cytokine concentration,primary human T-cells; [4],4132.03 pg/mL
same,IL-1 cytokine concentration,[1]; HaCaT stimulated with IFN-γ,0 pg/mL
same,IL-2 cytokine concentration,[1]; HaCaT stimulated with IFN-γ,0 pg/mL
same,IL-4 cytokine concentration,[1]; HaCaT stimulated with IFN-γ,183.12 pg/mL
same,IL-5 cytokine concentration,[1]; HaCaT stimulated with IFN-γ,88.64 pg/mL
same,IL-6 cytokine concentration,[1]; HaCaT stimulated with IFN-γ,346.73 pg/mL
same,IL-9 cytokine concentration,[1]; HaCaT stimulated with IFN-γ,0 pg/mL
same,IL-10 cytokine concentration,[1]; HaCaT stimulated with IFN-γ,0 pg/mL
same,IL-12p70 cytokine concentration,[1]; HaCaT stimulated with IFN-γ,0 pg/mL
same,IL-13 cytokine concentration,[1]; HaCaT stimulated with IFN-γ,1904.09 pg/mL
same,IL-17 cytokine concentration,[1]; HaCaT stimulated with IFN-γ,189.1 pg/mL
same,IL-22 cytokine concentration,[1]; HaCaT stimulated with IFN-γ,0 pg/mL
same,TNF-α cytokine concentration,[1]; HaCaT stimulated with IFN-γ,0 pg/mL
same,IFN-γ cytokine concentration,[1]; HaCaT stimulated with PBS,469.17 pg/mL
same,IL-1 cytokine concentration,[1]; HaCaT stimulated with PBS,170.16 pg/mL
same,IL-2 cytokine concentration,[1]; HaCaT stimulated with PBS,0 pg/mL
same,IL-4 cytokine concentration,[1]; HaCaT stimulated with PBS,218.04 pg/mL
same,IL-5 cytokine concentration,[1]; HaCaT stimulated with PBS,0 pg/mL
same,IL-6 cytokine concentration,[1]; HaCaT stimulated with PBS,125.38 pg/mL
same,IL-9 cytokine concentration,[1]; HaCaT stimulated with PBS,5.28 pg/mL
same,IL-10 cytokine concentration,[1]; HaCaT stimulated with PBS,0 pg/mL
same,IL-12p70 cytokine concentration,[1]; HaCaT stimulated with PBS,0 pg/mL
same,IL-13 cytokine concentration,[1]; HaCaT stimulated with PBS,1864.02 pg/mL
same,IL-17 cytokine concentration,[1]; HaCaT stimulated with PBS,230.84 pg/mL
same,IL-22 cytokine concentration,[1]; HaCaT stimulated with PBS,0 pg/mL
same,TNF-α cytokine concentration,[1]; HaCaT stimulated with PBS,0 pg/mL
same,IFN-γ cytokine concentration,[1]; [5],327.78 pg/mL
same,IL-1 cytokine concentration,[1]; [5],251.13 pg/mL
same,IL-2 cytokine concentration,[1]; [5],189.17 pg/mL
same,IL-4 cytokine concentration,[1]; [5],0 pg/mL
same,IL-5 cytokine concentration,[1]; [5],0 pg/mL
same,IL-6 cytokine concentration,[1]; [5],315.82 pg/mL
same,IL-9 cytokine concentration,[1]; [5],14.67 pg/mL
same,IL-10 cytokine concentration,[1]; [5],34.84 pg/mL
same,IL-12p70 cytokine concentration,[1]; [5],0 pg/mL
same,IL-13 cytokine concentration,[1]; [5],0 pg/mL
same,IL-17 cytokine concentration,[1]; [5],45.41 pg/mL
same,IL-22 cytokine concentration,[1]; [5],0 pg/mL
same,TNF-α cytokine concentration,[1]; [5],53.51 pg/mL
same,IL-1 cytokine concentration,primary murine T-cells; [6],77.81 pg/mL
same,IL-2 cytokine concentration,primary murine T-cells; [6],93.19 pg/mL
same,IL-4 cytokine concentration,primary murine T-cells; [6],81.11 pg/mL
same,IL-5 cytokine concentration,primary murine T-cells; [6],238.38 pg/mL
same,IL-6 cytokine concentration,primary murine T-cells; [6],139.83 pg/mL
same,IL-10 cytokine concentration,primary murine T-cells; [6],2024.06 pg/mL
same,IL-13 cytokine concentration,primary murine T-cells; [6],0 pg/mL
same,IL-17 cytokine concentration,primary murine T-cells; [6],0 pg/mL
same,IL-21 cytokine concentration,primary murine T-cells; [6],0 pg/mL
same,IL-22 cytokine concentration,primary murine T-cells; [6],57.35 pg/mL
same,IL-27 cytokine concentration,primary murine T-cells; [6],1.29 pg/mL
same,TNF-α cytokine concentration,primary murine T-cells; [6],32.42 pg/mL
same,IFN-γ cytokine concentration,primary murine T-cells; [7],0 pg/mL
same,IL-1 cytokine concentration,primary murine T-cells; [7],66.84 pg/mL
same,IL-2 cytokine concentration,primary murine T-cells; [7],132.67 pg/mL
same,IL-4 cytokine concentration,primary murine T-cells; [7],65.63 pg/mL
same,IL-5 cytokine concentration,primary murine T-cells; [7],229.8 pg/mL
same,IL-6 cytokine concentration,primary murine T-cells; [7],177.95 pg/mL
same,IL-10 cytokine concentration,primary murine T-cells; [7],923.65 pg/mL
same,IL-13 cytokine concentration,primary murine T-cells; [7],0 pg/mL
same,IL-17 cytokine concentration,primary murine T-cells; [7],0 pg/mL
same,IL-21 cytokine concentration,primary murine T-cells; [7],0 pg/mL
same,IL-22 cytokine concentration,primary murine T-cells; [7],71.47 pg/mL
same,IL-27 cytokine concentration,primary murine T-cells; [7],0 pg/mL
same,TNF-α cytokine concentration,primary murine T-cells; [7],77.08 pg/mL
same,IFN-γ cytokine concentration,primary murine T-cells; [8],2377.98 pg/mL
same,IL-1 cytokine concentration,primary murine T-cells; [8],173.61 pg/mL
same,IL-2 cytokine concentration,primary murine T-cells; [8],179.75 pg/mL
same,IL-4 cytokine concentration,primary murine T-cells; [8],56.84 pg/mL
same,IL-5 cytokine concentration,primary murine T-cells; [8],267.52 pg/mL
same,IL-6 cytokine concentration,primary murine T-cells; [8],164.16 pg/mL
same,IL-10 cytokine concentration,primary murine T-cells; [8],1182.68 pg/mL
same,IL-13 cytokine concentration,primary murine T-cells; [8],0 pg/mL
same,IL-17 cytokine concentration,primary murine T-cells; [8],86.12 pg/mL
same,IL-21 cytokine concentration,primary murine T-cells; [8],0 pg/mL
same,IL-22 cytokine concentration,primary murine T-cells; [8],44.47 pg/mL
same,IL-27 cytokine concentration,primary murine T-cells; [8],8.48 pg/mL
same,TNF-α cytokine concentration,primary murine T-cells; [8],33.37 pg/mL
